Assay results reported in ChEMBL document CHEMBL4725420, “Selective DYRK1A Inhibitor for the Treatment of Neurodegenerative Diseases: Alzheimer, Parkinson, Huntington, and Down Syndrome” (ACS Med Chem Lett, 2020).

Target: Dual specificity tyrosine-phosphorylation-regulated kinase 1A (Homo sapiens, UniProt Q13627)
Assay: Binding affinity to DYRK1A (unknown origin)

`Cc1nc2ccc(-c3cnn(C4CC4)c3)nc2n1-c1ccc(N2CCOCC2)c(F)c1` and `Cc1nc2ccc(-c3ccncc3)nc2n1-c1ccc(CN2CCOCC2)cc1` are the same in Kd: 0.5 nM for the first, 0.5 nM for the second.

`Fc1c(-c2ccncc2)ccc2ncn(-c3ccc4c(c3)OCO4)c12` and `c1cc(-c2ccc3ncn(-c4ccc5c(c4)OCO5)c3n2)ccn1` are the same in Kd: 0.5 nM for the first, 0.5 nM for the second.

`NC(=O)c1ccc(-n2cnc3ccc(-c4ccncc4)c(F)c32)nc1` and `COC(=O)c1ccc(-n2cnc3ccc(-c4ccncc4)c(F)c32)cc1` are the same in Kd: 0.5 nM for the first, 0.5 nM for the second.

Compared with `CC(=O)N1CC[C@H](n2c(C)nc3ccc(-c4ccncc4)nc32)C1`, `CC(=O)N1C[C@@H]2[C@H](C1)[C@H]2n1c(C)nc2ccc(-c3ccncc3)nc21` is 200-fold lower in Kd: 101 nM for the first, 0.5 nM for the second. The second binds more tightly here.

`O=C(O)c1ccc(-n2cnc3ccc(-c4ccncc4)nc32)cc1` and `Cc1nc2ccc(-c3ccncc3)nc2n1-c1ccc2c(c1)OCC(=O)N2` are the same in Kd: 0.5 nM for the first, 0.5 nM for the second.
